Data reported in ChEMBL document CHEMBL5528067, “From Synergy to Monotherapy: Discovery of Novel 2,4,6-Trisubstituted Triazine Hydrazone Derivatives with Potent Antifungal Potency In Vitro and In Vivo” (J Med Chem, 2024).
Converted amounts (≈) assume the structure as drawn. The source made the active and inactive calls. The calls are words filed in the database; no cut-off is given here.

How the values were obtained:
[1] = Hemolytic activity in rabbit Red blood cell assessed as hemolysis rate at 8 microg/ml incubated for 1 hr; type: toxicity, cell-based, Oryctolagus cuniculus, Erythrocyte; conditions: red blood cells, at 8 µg/mL, read-out: Activity
Candida albicans [2] = experiment: Antifungal activity against FCZ-resistant Candida albicans strain 901 assessed as growth inhibition measured after 48 hrs incubation by CLSI based micro-dilution broth method; type: functional
Pichia kudriavzevii [3] = experiment: Antifungal activity against Candida krusei 4996 assessed as growth inhibition measured after 48 hrs incubation by CLSI based micro-dilution broth method; type: functional
[Candida] auris [4] = Antifungal activity against FCZ-resistant Candida auris 918 assessed as growth inhibition measured after 48 hrs incubation by CLSI based micro-dilution broth method; type: functional; conditions: Candidozyma auris
[5] = Cytotoxicity against human HUVEC cells assessed as cell viability at 16 microg/ml measured after 24 hrs by CCK-8 assay relative to control; type: toxicity, cell-based; conditions: at 16 µg/mL, read-out: Activity
[6] = Hemolytic activity in rabbit Red blood cell assessed as hemolysis rate at 64 microg/ml incubated for 1 hr; type: toxicity, cell-based, Oryctolagus cuniculus, Erythrocyte; conditions: red blood cells, at 64 µg/mL, read-out: Activity
[7] = target: T1, Lanosterol 14-alpha demethylase (Candida albicans (strain SC5314 / ATCC MYA-2876) (Yeast), UniProt P10613); experiment: Inhibition of CYP51 in Candida albicans SC5314 assessed as accumulation of obtusifoliol at 4 microg/ml measured after 8 hrs by GC-MS analysis; conditions: dose 4 µg/ml
T1 sequence (P10613 whole entry): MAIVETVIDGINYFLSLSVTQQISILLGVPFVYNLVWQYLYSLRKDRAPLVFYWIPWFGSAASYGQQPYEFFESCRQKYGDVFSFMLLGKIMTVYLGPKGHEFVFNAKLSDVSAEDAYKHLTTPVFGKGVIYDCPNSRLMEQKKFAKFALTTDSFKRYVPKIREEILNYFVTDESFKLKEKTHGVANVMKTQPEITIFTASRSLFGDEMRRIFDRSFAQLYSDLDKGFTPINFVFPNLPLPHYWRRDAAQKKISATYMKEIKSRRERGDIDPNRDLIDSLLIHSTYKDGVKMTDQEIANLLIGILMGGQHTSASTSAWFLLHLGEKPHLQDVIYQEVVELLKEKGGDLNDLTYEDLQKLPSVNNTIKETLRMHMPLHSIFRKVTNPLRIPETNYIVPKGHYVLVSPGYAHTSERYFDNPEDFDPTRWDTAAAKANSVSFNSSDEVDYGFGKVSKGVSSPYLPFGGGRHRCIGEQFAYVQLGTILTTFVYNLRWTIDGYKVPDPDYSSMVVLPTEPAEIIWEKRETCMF

Candida albicans [8] = experiment: Antifungal activity against FCZ-resistant Candida albicans strains assessed as growth inhibition measured after 48 hrs incubation by CLSI based micro-dilution broth method; type: functional
Pichia kudriavzevii [9] = experiment: Antifungal activity against FCZ-resistant Candida krusei 4996 assessed as growth inhibition at 32 microg/ml measured at 24 hrs incubation by time growth assay; type: functional, organism-based; conditions: dose 32.0 µg/ml
Cryptococcus neoformans [10] = experiment: Antifungal activity against FCZ-resistant Cryptococcus neoformans 32609 assessed as growth inhibition at 1 microg/ml measured at 24 hrs incubation by time growth assay; type: functional, organism-based; conditions: dose 1.0 µg/ml
Nakaseomyces glabratus [11] = experiment: Antifungal activity against Candida glabrata 537 assessed as growth inhibition measured after 48 hrs incubation by CLSI based micro-dilution broth method; type: functional
Candida tropicalis = experiment: Antifungal activity against Candida tropicalis 8915 assessed as growth inhibition measured after 48 hrs incubation by CLSI based micro-dilution broth method; type: functional
[12] = target: T1, Lanosterol 14-alpha demethylase; experiment: Inhibition of CYP51 in Candida albicans SC5314 assessed as decrease in ergosterol biosynthesis at 4 microg/ml measured after 8 hrs by GC-MS analysis (reference value: 88.32%); parameters: scale not given: the % may be the effect or the level left; conditions: at 4 µg/mL
Cryptococcus neoformans [13] = experiment: Antifungal activity against Cryptococcus neoformans 32609 assessed as growth inhibition measured after 48 hrs incubation by CLSI based micro-dilution broth method; type: functional
[14] = target: T1, Lanosterol 14-alpha demethylase; experiment: Inhibition of CYP51 in Candida albicans SC5314 assessed as accumulation of eburicol at 4 microg/ml measured after 8 hrs by GC-MS analysis; conditions: dose 4 µg/ml
Nakaseomyces glabratus [15] = experiment: Antifungal activity against FCZ-resistant Candida glabrata 537 assessed as growth inhibition at 4 microg/ml measured at 12 hrs incubation by time growth assay; type: functional, organism-based; conditions: dose 4.0 µg/ml
[16] = target: T1, Lanosterol 14-alpha demethylase; experiment: Inhibition of CYP51 in Candida albicans SC5314 assessed as accumulation of 14alpha-methylfecosterol at 4 microg/ml measured after 8 hrs by GC-MS analysis; conditions: dose 4 µg/ml
Candida albicans [17] = experiment: Antifungal activity against FCZ-resistant Candida albicans SC5314 assessed as growth inhibition measured after 48 hrs incubation by CLSI based micro-dilution broth method; type: functional
Candida albicans [18] = experiment: Antifungal activity against FCZ-resistant Candida albicans 10231 assessed as growth inhibition measured after 48 hrs incubation by CLSI based micro-dilution broth method; type: functional
Candida albicans [19] = experiment: Antifungal activity against FCZ-resistant Candida albicans SC5314 assessed as growth inhibition at 4 microg/ml measured at 12 hrs incubation by time growth assay; type: functional, organism-based; conditions: dose 4.0 µg/ml
Candida parapsilosis = experiment: Antifungal activity against Candida parapsilosis 22019 assessed as growth inhibition measured after 48 hrs incubation by CLSI based micro-dilution broth method; type: functional; conditions: Lodderomyces parapsilosis
[Candida] auris [20] = Antifungal activity against FCZ-resistant Candida auris 919 assessed as growth inhibition measured after 48 hrs incubation by CLSI based micro-dilution broth method; type: functional; conditions: Candidozyma auris
Candida albicans [21] = experiment: Antifungal activity against FCZ-resistant Candida albicans strain 904 assessed as growth inhibition measured after 48 hrs incubation by CLSI based micro-dilution broth method; type: functional
Candida albicans [22] = experiment: Antifungal activity against FCZ-resistant Candida albicans strains assessed as growth inhibition in presence of (E)-2-((4,6-Bis((4-fluorobenzyl)amino)-1,3,5-triazin-2-yl)hydrazineylidene)methyl)-4-nitrophenol measured after 48 hrs incubation by CLSI based micro-dilution broth method; type: functional
Candida albicans [23] = experiment: In vivo antifungal activity against Candida albicans SC5314 infected in C57BL/6J mouse assessed as reduction in fungal burden in kidney at 0.5 mg/kg, po treated once a day for 2 days; type: functional, organism-based; conditions: time 2.0 day

## C[C@@H]1[C@H](O)[C@@H](C)/C=C/C=C/C=C/C=C/C=C/C=C/C=C/[C@H](O[C@@H]2O[C@H](C)[C@@H](O)[C@H](N)[C@@H]2O)C[C@@H]2O[C@](O)(C[C@@H](O)C[C@@H](O)[C@H](O)CC[C@@H](O)C[C@@H](O)CC(=O)O[C@H]1C)C[C@H](O)[C@H]2C(=O)O [AMPHOTERICIN B]
[1]
  hemolysis at 1 h, 8 microg/ml: 50.7%

## OC(Cn1cncn1)(Cn1cncn1)c1ccc(F)cc1F [FLUCONAZOLE]
Candida albicans [2]
  MIC80: > 64 µg/mL
Pichia kudriavzevii [3]
  MIC80: 64 µg/mL (≈ 209 µM)
[Candida] auris [4]
  MIC80: > 64 µg/mL
[5]
  viability at 24 h, 16 microg/ml: 82.8%
[6]
  hemolysis at 1 h, 64 microg/ml: 23.9%
[7]
  Activity: Active
Candida albicans [8]
  MIC80: > 64 µg/mL
Pichia kudriavzevii [9]
  Activity: Active
Cryptococcus neoformans [10]
  Activity: inactive
Nakaseomyces glabratus [11]
  MIC80: 1 µg/mL (≈ 3.27 µM)
Candida tropicalis
  MIC80: 0.5 µg/mL (≈ 1.63 µM)
[12]
  Activity: 2.91%
Cryptococcus neoformans [13]
  MIC80: 2 µg/mL (≈ 6.53 µM)
[14]
  Activity: Active
Nakaseomyces glabratus [15]
  Activity: inactive
[16]
  Activity: Active
Candida albicans [17]
  MIC80: 0.5 µg/mL (≈ 1.63 µM)
Candida albicans [18]
  MIC80: 64 µg/mL (≈ 209 µM)
Candida albicans [19]
  Activity: Active
Candida parapsilosis
  MIC80: 2 µg/mL (≈ 6.53 µM)
[Candida] auris [20]
  MIC80: > 64 µg/mL
Candida albicans [21]
  MIC80: > 64 µg/mL
Candida albicans [22]
  MIC80: 1 µg/mL
Candida albicans [23]
  Activity: Active
